Data taken from US4946858A, “Novel spirosuccinimides as aldose reductase inhibitors and antihyperglycemic agents” (American Home Products Corporation, priority 1989, dated 1990).
Like-named read-outs stand apart in the source and are kept apart here.

Legend:
diabetic (db/db) mice = assay: Blood glucose lowering activity in diabetic (db/db) mice; format: in vivo, mouse (db/db, C57BL/KsJ); details: for change in vivo at 100 mg/kg: Mus musculus, po, 96 h, 100 mg/kg/day p.o. (gavage), read-out: % Change from vehicle (plasma glucose)
Description: The blood glucose lowering activity of the compounds of this invention were demonstrable in experiments using diabetic (db/db) mice. […] The animals are obese, glucose intolerant and have fasting hyperglycemia which is sometimes accompanied by a paradoxical hyperinsulinemia. Furthermore, the db/db mouse will eventually develop some of the long-term complications that have been associated with diabetes mellitus. [See Coleman Diabetes, 31 (Suppl. 1), 1 (1982)]. In spite of these commonalities, the acute administration of sulfonylureas (even at extremely high dosages) will not reduce the hyperglycemia of the db/db mouse. [See Tutwiler et al, Diabetes 27, 856 (1978)]. […] On the morning of Day 1, 35 mice [male db/db (C57BL/KsJ), Jackson Laboratories, 2 to 7 months of age and body weight 35 to 60 g] were fasted for 4 hours, weighted and a baseline blood sample was collected from the tail-tip of each mouse without anesthesia, placed directly into a fluoride-containing tube, mixed and maintained on ice. Food was then returned to the mice. The plasma was separated and levels of glucose in plasma determined by the Abbott VP Analyzer. Because of the variable plasma glucose levels of the db/db mice, 5 mice having the most extreme (i.e., highest or lowest) plasma glucose levels were excluded and the remaining 30 mice were randomly assigned into […] of equivalent means plasma glucose levels: On the afternoon of Days 1, 2 and 3 the vehicle, control or test drugs were administered (p.o.) to the ad libitum fed mice. […] The test compounds were given by gavage at a dose of 100 mg/kg/day unless otherwise noted in Table 3. On the morning of Day 4, the mice were weighted and fasted, but water was available ad libitum. Three hours later, a blood sample was collected and then the mice were given the fourth administration of drug or vehicle. Blood samples were collected again from the unanesthetized mice at 2 and 4 hours after drug administration. The plasma was separated and levels of glucose in plasma determined by the Abbott VP Analyzer. For each mouse, the percent change of it's plasma glucose level on Day 4 (mean of the 2 and 4 hour samples) from it's respective level before drug administration (Day 1 baseline sample) was determined as follows: [formula] Analysis of variance followed by Dunnett's multiple comparison (one-sided) was used to estimate the degree of statistical significance of the difference between the vehicle group and the individual drug-treated groups. A drug was considered active, at the specific dosage administered,if the difference of the plasma glucose level has a p<0.05.

[1] = system: hyperglycemia and hyperinsulinemia; details: Fujita et al, Diabetes, 32, 804 (1983); cited from earlier work
aldose reductase = biological target: T1, aldose reductase (Bos taurus, UniProt P16116); assay: In vitro inhibition of aldose reductase (modified Hayman and Kinoshita procedure, enzyme from bovine lens); format: biochemical; details: read-out: % Inhibition in Vitro; for inhibition at 1 µM: 10^-6 M
T1 construct: preparation of the enzyme from bovine lens; from tissue; host or cells: bovine lens
Description: In the present case the procedure of Hayman and Kinoshita was modified in that the final chromatography step was omitted in the preparation of the enzyme from bovine lens.

galactosemic rats = assay: Lowering of galactitol (dulcitol) accumulation in tissues of galactosemic rats; format: in vivo, rat (Sprague-Dawley); details: 4 days, vs untreated galactosemic rats
Description: The aldose reductase inhibiting property of the compounds of this invention and the utilization of the compounds in preventing, diminishing and alleviating diabetic complications by lowering polyol accumulation were also demonstrable in experiments using galactosemic rats, see Dvornik et al, Science, 182, 1146 (1973). Such experiments are exemplified hereinbelow after the listing of the following general comments pertaining to these experiments:
(a) Four or more groups of six male rats, 50-70 g, Sprague-Dawley strain, were used. The first group, the control group, was fed a mixture of laboratory chow (rodent Laboratory Chow, Purina) and glucose at 20% (w/w %) concentration. The untreated galactosemic group and the drug-treated groups were fed a similar diet in which galactose is substituted for glucose. The test compound was either admixed to the diet or administered by gavage. In experiments involving compound administration in the diet, the average dose administered was calculated from the actual food intake of the animals in each group. The concentration of galactose in the diet of the treated groups was the same as that for the untreated galactosemic groups.
(b) After four days, the amimals were killed by decapitation. The eyeballs were removed and punctured with a razor blade; the freed lenses were rolled gently on filter paper and weighed. The sciatic nerves were dissected as completely as possible and weighed. Both tissues when frozen can be kept up to two weeks before being analyzed for galactitol.
(c) The polyol determination was performed by a modification of the procedure of M. Kraml and L. Cosyns, Clin. Biochem., 2, 373 (1969). Only two minor reagent changes were made: (a) the rinsing mixture was an aqueous 5% (w/v) trichloroacetic acid solution and (b) the stock solution was prepared by dissolving 25 mg of dulcitol in 100 mL of an aqueous trichloroacetic acid solution. [N.B.: For each experiment the average value found in the tissue from rats fed the glucose diet was subtracted from the individual values found in the corresponding tissue in galactose-fed rats to obtain the amount of polyol accumulated.]
The figures under L, N, and D represent the percentage decrease of galactitol accumulation in the tissues of the lens, sciatic nerve, and diaphragm, respectively, for treated rats as compared to untreated rats.

[2] = Day 4 mean of 2 and 4 hour samples vs Day 1 baseline, difference from vehicle

| inhibition at 10 µM (aldose reductase; 10^-5 M) [%] | inhibition at 1 µM (aldose reductase) [%] | Structure (SMILES) | change in vivo at 100 mg/kg (diabetic (db/db) mice; [2]) [%] | also measured |
| --- | --- | --- | --- | --- |
| – | – | CC1(COc2ccc(CC3SC(=O)NC3=O)cc2)CCCCC1 (racemic) [Ciglitazone, (±)-5-[4-[(1-methylcyclohexyl)methoxy]benzyl]-thiazolidine-2,4-dione, reference compound] | -33 | effect on hyperglycemia and hyperinsulinemia [1]: normalizes these parameters |
| 52 | 3 | O=C1CC2(C(=O)N1)c1ccccc1S(=O)(=O)N2Cc1ccc(Br)cc1F (centres unmarked) [Example 104, 2-[(4-bromo-2-fluorophenyl)methyl]-2,3-dihydrospiro[1,2-benzisothiazole-3,3'-pyrrolidine]-2',5'-dione 1,1-dioxide] | -48 | comparison with ciglitazone, blood glucose lowering (diabetic (db/db) mice; 100 mg/kg, db/db mice): gives comparable results to ciglitazone at 100 mg/kg; % Lowering of dulcitol accumulation In Vivo, % L (lens) (galactosemic rats; 104 mg/kg): 13% |
| 63 | 16 | O=C1CC2(C(=O)N1)c1ccccc1S(=O)(=O)N2Cc1ccc(Cl)c(Cl)c1 (centres unmarked) [Example 105] | -27 | – |
| – | – | O=C1CC2(C(=O)N1)c1ccccc1S(=O)(=O)N2Cc1ccc(Br)cc1 (centres unmarked) [Example 106, 2-[(4-bromophenyl)methyl]-2,3-dihydrospiro[1,2-benzisothiazole-3,3'-pyrrol-idine]-2',5'-dione 1,1-dioxide] | -37 | – |
| – | – | O=C1CC2(C(=O)N1)c1ccccc1S(=O)(=O)N2Cc1c(F)cccc1Cl (centres unmarked) [Example 110] | -17 | – |
| – | – | CC(C)N1C2(CC(=O)NC2=O)c2ccccc2S1(=O)=O (centres unmarked) [Example 111] | – | % Change from vehicle (plasma glucose) (diabetic (db/db) mice; 87 mg/kg/day p.o. (gavage), Day 4 mean of 2 and 4 hour samples vs Day 1 baseline, difference from vehicle): -27% |
| – | – | O=C1CC2(C(=O)N1)c1ccccc1C(=O)N2Cc1ccccc1 (centres unmarked) [Example 114] | -22 | – |
| 82 | 45 | O=C1CC2(C(=O)N1)c1ccccc1C(=O)N2Cc1ccc(Cl)c(Cl)c1 (centres unmarked) [Example 115] | -21 | – |
| 84 | 54 | O=C1CC2(C(=O)N1)c1ccccc1C(=O)N2Cc1ccc(Br)cc1F (centres unmarked) [Example 116, 2-[(4-bromo-2-fluorophenyl)methyl]spiro[1H-isoindole-1,3'pyrrolidine]-2',3,5'(2H)-trione] | -36 | % Lowering of dulcitol accumulation In Vivo, % D (diaphragm) (galactosemic rats; 101 mg/kg): 30% |

| Structure (SMILES) | inhibition at 10 µM (aldose reductase; 10^-5 M) [%] | inhibition at 1 µM (aldose reductase) [%] | change in vivo at 100 mg/kg (diabetic (db/db) mice; [2]) [%] | also measured |
| --- | --- | --- | --- | --- |
| CN1C(=O)c2cc(Cl)c(Cl)cc2C12CC(=O)NC2=O (centres unmarked) [Example 122, 5,6-dichloro-2-methylspiro[1H-isoindole-1,3'-pyrrolidine]-2',3,5'(2H)-trione] | – | 83 | -31 | inhibition at 10 µM (aldose reductase): 94%; % Lowering of dulcitol accumulation In Vivo, % D (diaphragm) (galactosemic rats; 3 mg/kg): 25%; % Lowering of dulcitol accumulation In Vivo, % N (sciatic nerve) (galactosemic rats; 3 mg/kg): 20%; % Lowering of dulcitol accumulation In Vivo, % D (diaphragm) (galactosemic rats; 50 mg/kg): 90%; % Lowering of dulcitol accumulation In Vivo, % L (lens) (galactosemic rats; 50 mg/kg): 71%; % Lowering of dulcitol accumulation In Vivo, % N (sciatic nerve) (galactosemic rats; 50 mg/kg): 94% |
